Results: PMC5228037, “Discovery and Mechanistic Characterization of Selective Inhibitors of H2S-producing Enzyme: 3-Mercaptopyruvate Sulfurtransferase (3MST) Targeting Active-site Cysteine Persulfide” (Scientific Reports, 2017)

Biological target: T1, recombinant purified m3MST (Mus musculus, UniProt Q99J99)
T1 construct: made in house; host or cells: E. coli BL21
T1 sequence (Q99J99 1-297): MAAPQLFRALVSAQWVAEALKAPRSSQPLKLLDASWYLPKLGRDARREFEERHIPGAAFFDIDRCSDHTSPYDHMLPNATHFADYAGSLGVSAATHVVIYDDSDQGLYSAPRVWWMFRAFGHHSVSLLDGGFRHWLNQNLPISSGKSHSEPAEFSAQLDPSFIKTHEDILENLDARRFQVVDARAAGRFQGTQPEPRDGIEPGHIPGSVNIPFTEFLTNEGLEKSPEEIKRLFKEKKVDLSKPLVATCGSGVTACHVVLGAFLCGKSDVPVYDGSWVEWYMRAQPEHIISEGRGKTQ
Assay: Inhibitory activity toward purified m3MST by gas chromatography
Format: biochemical
Details: 10 μM compound; 50 μM 3MP, 40 μM DTT; room temperature 3 hr; mean±S.D. n = 2; read-out: Inhibitory activity toward recombinant purified m3MST (H2S production by gas chromatography)
Protocol: 1 μL of 1 mM compound (final 10 μM) was diluted with 89 μL of 3MST solution (final 3.8 μg/mL) or GST solution (2.2 μg/mL) in 30 mM HEPES buffer (pH 7.4) in a 30 mL collection vial (Iwaki). 10 μL of 3MP and DTT solution (final concentration: 50 μM 3MP and 40 μM DTT) was added to 90 μL of the mixture, then the vial was sealed with parafilm and incubated at room temperature for 3 hr. After addition of 200 μL of 1 M sodium citrate buffer (pH 6.0), the mixture was incubated at 37 °C for at least 10 minutes with shaking on rotary shaker to quench the enzymatic activity and facilitate release of H2S gas from the aqueous phase. A 2 mL sample of head-space gas (total, approximately 29.5 mL) was applied to a gas chromatograph (ODSA-P2, Alpha M.O.S. Japan). The concentrations of H2S were determined from a standard curve obtained with 0 to 4 nmol of Na2S, which is a source of H2S. The protocol is illustrated in Supplementary Fig. 9.
Compound Inhibitory activity
All data are presented as the mean±S.D. (n = 2).
Supplementary Figure S9. (a) Schematic illustration of 3MST inhibitor assay by gas chromatography. (b) Inhibitory activity toward recombinant purified m3MST. Conditions: Mixtures of 10 μM test compound, 3.8 μg/mL 3MST or 2.2 μg/mL GST, 50 μM 3MP, 40 μM DTT, and 1% (v/v) DMSO in 30 mM HEPES buffer (pH 7.4) were incubated at room temperature for 3 hr.
(1 picture or pasted object on this page, not shown here)

Compound	inhibition at 10 µM [%]
Cc1cc(=O)[nH]c(SCC(=O)c2cccc3ccccc23)n1 [compound 3]	90.3 ± 12
NC(=O)c1ccsc1NC(=O)CSc1nc2ccccc2c(=O)[nH]1 [compound 1]	104 ± 2.7
Cc1sc2nc(SCC(=O)c3ccc(O)cc3O)[nH]c(=O)c2c1C [compound 2]	93.4 ± 0.8
O=C(O)c1cccc(NS(=O)(=O)c2ccccc2)c1 [compound 5]	90.9 ± 0.9
